Consider 1 compound from US8680155B2, “Synthesis and antitumor activity of novel bis(benzylidene-benzenamine)disulfides” (Kaohsiung Medical University, priority 2011, dated 2014).

In general, GI50 refers to the concentration that inhibits growth by half.

What all share (type): cell-based
Test [1] relates to IGROV1. As to the kind of experiment: MTT cytotoxicity, IGROV1 ovarian cancer. The method, then: (§1) For confirming the cytotoxicity of bis(benzylidene-benzenamine)disulfides of the invention on various cancer cells, the well known MTT (3-(4,5-dimethylthiazol-2-yl)-2,5-diphenyltetrazolium bromide) colorimetric assay in this art was performed, and the method was not detailedly described herein. Please refer to Table 3, compound 12 was selected from compounds 1 to 24 to proceed cytotoxicity experiment.

Test [2] has as its system SK-MEL-5. As to the kind of experiment: MTT cytotoxicity, SK-MEL-5 melanoma. The note with it: SK-MEL-5, MTT. The method, then: as §1
The subject of test [3] is SNB-75. As to the kind of experiment: MTT cytotoxicity, SNB-75 central nervous system cancer. The note with it: SNB-75, MTT. As to the method: as §1
The subject of test [4] is selected cancer cell lines. In words: MTT cytotoxicity, mean over cancer cell lines. Conditions: read-out: mean 50% growth inhibition (GI50). The method, then: as §1
For test [5], the system named is T-47D. In words: MTT cytotoxicity, T-47D breast cancer. The method, then: as §1
The subject of test [6] is NCI-H226. In words: MTT cytotoxicity, NCI-H226 non-small cell lung cancer. As to the method: as §1
For test [7], the system named is LOX MVI. As to the kind of experiment: MTT cytotoxicity, LOX MVI melanoma. As to the method:
as §1

For test [8], the system named is HOP-92. As to the kind of experiment: MTT cytotoxicity, HOP-92 non-small cell lung cancer. Conditions: HOP-92, MTT. As to the method:
as §1

Test [9] relates to MALME-3M. As to the kind of experiment: MTT cytotoxicity, MALME-3M melanoma. As to the method:
as §1

Test [10] deals with HCT-15. As to the kind of experiment: MTT cytotoxicity, HCT-15 colon cancer. Conditions: HCT-15, MTT. The method, then: as §1

With `Cc1cc([N+](=O)[O-])ccc1N=C(SSC(=Nc1ccc([N+](=O)[O-])cc1C)c1ccc(C(F)(F)F)cc1)c1ccc(C(F)(F)F)cc1` [Compound 12], the concentration for 50% growth inhibition (GI50) in test [1] was determined as 0.217 µM; in test [2], 0.262 µM; in test [3] it was 0.141 µM; in [4] it was 0.372 µM; in test [5], 0.221 µM; in [6] it was 0.427 µM. Also, the concentration for 50% growth inhibition (GI50) was 0.304 µM in test [7], 0.175 µM in test [8], 0.252 µM in test [9] and 0.388 µM in test [10].
